{"source": "patent US9060952B2", "about": "“Synergistic preservative blends” (LONZA LTD., priority 2008, dated 2015)", "assay_in_all_cases": "Minimum inhibitory concentration (MIC), broth dilution", "key": {"C. albicans ATCC 10231": {"system": "C. albicans ATCC 10231", "set-up": "species or system Candida albicans", "experimental": "(§1) Minimum inhibitory concentrations (MIC) were determined for individual components and binary formulations as follows. Individual bacterial suspensions of S. aureus (gram positive), E. coli and P. aeruginosa (both gram negative) and individual fungal suspensions of C. albicans and A. niger were prepared as described in Example 1. Each individual suspension was standardized with PBDW to yield a ˜10^8 CFU/mL or ˜10^7 cells/mL for the individual bacteria and fungi, respectively.\n(§2) The individual components and binary formulations were diluted in either DI water or propylene glycol (as appropriate for solubility) to yield a 10,000 ppm total starting active solution. From the 10,000 ppm solution, a 1:9 dilution was made in sterile Nutrient Broth to yield a 1,000 ppm active solution. Five mL of the 1,000 ppm dilution was transferred to five mL of sterile Nutrient Broth (NB) to yield a 500 ppm active solution. This dilution scheme was repeated down to 3.90 ppm active. The same dilutions were made in sterile Sabouraud Dextrose Broth (SDB) for the fungal MIC testing. The series of nine active solutions (3.9 ppm˜1000 ppm) was prepared for each of the five microorganisms to be tested.\n(§3) From the E. coli suspension, 0.1 mL was added to each of the nine, 5-mL active solutions in NB. […] The lowest concentration with a lack of turbidity was recorded as the Minimum Inhibitory Concentration (MIC). […]"}, "E. coli ATCC 8739": {"system": "E. coli ATCC 8739", "set-up": "species or system Escherichia coli", "conditions": "for MIC: Escherichia coli", "experimental": "as §1, §2\n(§4) From the E. coli suspension, 0.1 mL was added to each of the nine, 5-mL active solutions in NB. Each tube was mixed thoroughly. This was repeated for each of the bacterial suspensions. Similarly, 0.1 mL of the C. albicans suspension was added to each of the nine, 5-mL active solutions in SDB. This was repeated with A. niger in a separate set of dilutions. Each tube was mixed thoroughly. Controls were prepared for each organism by inoculating 5 mL of NB or SDB, as appropriate. All three sets of bacterial tubes were incubated at 35° C. for 48 hours and the two sets of fungal tubes were incubated at 30° C. for 72 and 120 hours. At the end of the incubation period, the tubes were mixed and visually inspected for turbidity compared to the control. The lowest concentration with a lack of turbidity was recorded as the Minimum Inhibitory Concentration (MIC).\n(§5) The synergism value is (QA/Qa+QB/Qb). QA is the concentration of component A in the mixture, Qa is the concentration of component A applied singly, QB is the concentration of component B in the mixture, Qb is the concentration of component B applied singly. When the synergism value is less than one, the mixture is synergistic. Values for (QA/Qa+QB/Qb) of 1 and greater than 1 represent an additive effect and an antagonistic effect, respectively."}, "P. aeruginosa ATCC 9027": {"system": "P. aeruginosa ATCC 9027", "set-up": "species or system Pseudomonas aeruginosa", "conditions": "for MIC: Pseudomonas aeruginosa", "experimental": "as §1, §2, §4, §5"}, "A. niger ATCC 16404": {"system": "A. niger ATCC 16404", "set-up": "species or system Aspergillus niger", "experimental": "as §1, §2, §3"}, "S. aureus ATCC 6538": {"system": "S. aureus ATCC 6538", "set-up": "species or system Staphylococcus aureus", "conditions": "for MIC: Staphylococcus aureus", "experimental": "as §1, §2, §4, §5"}}, "note": "Where two headings read alike, the source gives them in different places."}
{"smiles": "Cn1sccc1=O", "note": "[Methylisothiazolinone]", "values": [{"measurement": "Qa, concentration of component A applied singly (MIC)", "setting": "C. albicans ATCC 10231", "result": 250, "unit": "ppm"}, {"measurement": "Qa, concentration of component A applied singly (MIC)", "setting": "E. coli ATCC 8739; E. coli", "result": 62.5, "unit": "ppm"}, {"measurement": "Qa, concentration of component A applied singly (MIC)", "setting": "P. aeruginosa ATCC 9027; P. aeruginosa", "result": 62.5, "unit": "ppm"}, {"measurement": "Qa, concentration of component A applied singly (MIC)", "setting": "A. niger ATCC 16404", "result": 500, "unit": "ppm"}, {"measurement": "Qa, concentration of component A applied singly (MIC)", "setting": "S. aureus ATCC 6538; S. aureus", "result": 250, "unit": "ppm"}]}
{"smiles": "CC(=O)C1C(=O)C=C(C)OC1=O", "note": "(stereo not shown) [Dehydroacetic acid]", "values": [{"measurement": "MIC", "setting": "E. coli ATCC 8739; ATCC8739, read-out: Qb, concentration of component B applied singly (MIC)", "result": 500, "unit": "µg/mL"}, {"measurement": "MIC", "setting": "P. aeruginosa ATCC 9027; ATCC9027, read-out: Qb, concentration of component B applied singly (MIC)", "result": 500, "unit": "µg/mL"}, {"measurement": "MIC", "setting": "S. aureus ATCC 6538; ATCC6538, read-out: Qb, concentration of component B applied singly (MIC)", "result": 500, "unit": "µg/mL"}]}
{"smiles": "CCCCCCC(O)CO", "note": "(stereo not shown) [Caprylyl Glycol]", "values": [{"measurement": "Qa, concentration of component A applied singly (MIC)", "setting": "E. coli ATCC 8739; E. coli", "result": 1000, "unit": "ppm"}, {"measurement": "Qa, concentration of component A applied singly (MIC)", "setting": "P. aeruginosa ATCC 9027; P. aeruginosa", "result": ">1000", "unit": "ppm"}, {"measurement": "Qa, concentration of component A applied singly (MIC)", "setting": "S. aureus ATCC 6538; S. aureus", "result": ">1000", "unit": "ppm"}]}
{"smiles": "CCCCCCCCCCCO", "note": "[Undecanol]", "values": [{"measurement": "MIC", "setting": "E. coli ATCC 8739; ATCC8739, E. coli, read-out: Qa, concentration of component A applied singly (MIC)", "result": "> 1000", "unit": "µg/mL"}, {"measurement": "MIC", "setting": "P. aeruginosa ATCC 9027; ATCC9027, P. aeruginosa, read-out: Qa, concentration of component A applied singly (MIC)", "result": "> 1000", "unit": "µg/mL"}, {"measurement": "MIC", "setting": "S. aureus ATCC 6538; ATCC6538, S. aureus, read-out: Qa, concentration of component A applied singly (MIC)", "result": "> 1000", "unit": "µg/mL"}]}
{"smiles": "Cc1cc(CC(C)CC(C)(C)C)n(O)c(=O)c1.NCCO", "note": "(stereo not shown) [Piroctone Olamine]", "values": [{"measurement": "Qb, concentration of component B applied singly (MIC)", "setting": "C. albicans ATCC 10231", "result": 62.5, "unit": "ppm"}, {"measurement": "Qb, concentration of component B applied singly (MIC)", "setting": "E. coli ATCC 8739; E. coli", "result": 62.5, "unit": "ppm"}, {"measurement": "Qb, concentration of component B applied singly (MIC)", "setting": "P. aeruginosa ATCC 9027; P. aeruginosa", "result": 62.5, "unit": "ppm"}, {"measurement": "Qb, concentration of component B applied singly (MIC)", "setting": "A. niger ATCC 16404", "result": 62.5, "unit": "ppm"}, {"measurement": "Qb, concentration of component B applied singly (MIC)", "setting": "S. aureus ATCC 6538; S. aureus", "result": 62.5, "unit": "ppm"}]}
